We go through eleven compounds from patent US10794897B2, “System and methods for predicting drug-induced inotropic and pro-arrhythmia risk” (AnaBios Corporation, priority 2017, dated 2020).

Where two headings read alike, the source gives them in different places.

By IC50 is commonly meant the concentration that gives 50% inhibition.

Data set [1] has as its system human cardiomyocyte preparation. To be noted: for concentration from which ACs were induced: human.
Data set [2] relates to ex vivo human ventricular trabeculae preparation.
For data set [3] the test system is unchanged. Briefly: ex vivo human ventricular trabeculae force of contraction.
Data set [4] deals with human cardiomyocyte preparation. Briefly: human cardiomyocyte contractility transients (system 20 validation with reference drugs). The conditions noted are these: human cardiomyocytes.

`CC(C)NCC(O)c1ccc(O)c(O)c1` (stereo not shown) [isoproterenol]: in data set [1], the AC incidence entry is listed as “induced no AC”, the CE incidence entry is recorded as “no CE incidence” and the TR90 result is given as “decreased”. Moreover, in data set [2], the AC incidence entry is “did not induce any ACs” and the TR90 result is “decrease”. The “increase of MAC” value in data set [3] (human ventricular trabeculae, at 0.03 μM) was determined as 315%. In data set [4] (positive inotropes), the FSF entry is “increased”, the maximum contraction velocity result is “increased”, the “maximum contraction velocity time” value was “increased” and the maximum relaxation velocity result is “increased”. Besides, in data set [4] (positive inotropes), the “maximum relaxation velocity time” value was “no effects”, the peak height result is given as “increased”, the “time to 10% peak” value is listed as “decreased” and the “time to 50% peak” value is listed as “decreased”. In data set [4] (positive inotropes), the time to peak entry is “no effects”.

Consider `O=c1[nH]c2ccccc2n1CCCN1CCC(n2c(=O)[nH]c3cc(Cl)ccc32)CC1` [domperidone], for which, in data set [1], the “AC (after-contraction) incidence” value is on record as “seen starting at the fETPC” and the sarcomere shortening result was “inhibited”.

With `Cc1cccc(C)c1OCC(C)N` (stereo not shown) [mexiletine], in data set [1], the AC incidence entry was “induced no ACs” and the sarcomere shortening entry is on record as “inhibited”.

As to `C[C@@H]1CC(=O)NN=C1c1ccc(NN=C(C#N)C#N)cc1` [levosimendan], the AC incidence result in data set [4] (at 10-fold the fETPC) is reported as “levosimendan did”. For the same compound, in data set [4] (positive inotropes), the CE incidence entry is recorded as “no CE incidence”, the FSF entry is “increased”, the TR90 result is on record as “no effect” and the maximum contraction velocity result is listed as “increased”. Further, in data set [4] (positive inotropes), the “maximum contraction velocity time” value was “no effect”, the maximum relaxation velocity entry is reported as “increased”, the “maximum relaxation velocity time” value is listed as “no effects” and the peak height entry is given as “increased”. In data set [4] (positive inotropes), the “time to 10% peak” value is “no effect”, the “time to 50% peak” value is listed as “no effect” and the time to peak entry is on record as “no effects”.

`COc1cc(N)c(Cl)cc1C(=O)NC1CCN(CCCOc2ccc(F)cc2)CC1OC` (stereo not shown) [cisapride]: in data set [1], the “AC (after-contraction) incidence” value is reported as “seen starting at the fETPC” and the sarcomere shortening entry is given as “inhibited”.

With `CC[C@H]1OC(=O)[C@H](C)[C@@H](O[C@H]2C[C@@](C)(OC)[C@@H](O)[C@H](C)O2)[C@H](C)[C@@H](O[C@@H]2O[C@H](C)C[C@H](N(C)C)[C@H]2O)[C@](C)(OC)C[C@@H](C)C(=O)[C@H](C)[C@@H](O)[C@]1(C)O` [clarithromycin], in data set [1], the sarcomere shortening entry is “inhibited” and the “concentration from which ACs were induced” value (“concentration” below) is given as 10 -fold the fETPC.

In the case of `C=C[C@H]1C[N@@]2CC[C@H]1C[C@@H]2[C@@H](O)c1ccnc2ccc(OC)cc12` [quinidine], in data set [1], the “AC (after-contraction) incidence” value is recorded as “concentration-dependent increases”, the “CE (contractility escape) incidence” value was “concentration-dependent increases” and the “TR90 (time to 90% relaxation)” value was “prolongation”.

As for `CC(C)NCC(O)c1ccc(NS(C)(=O)=O)cc1` (racemic) [sotalol, d,l-sotalol], in data set [1], the sarcomere shortening result is reported as “no effects” and the “concentration” value is listed as 10 -fold the fETPC. For the same compound, in data set [2], the TR90 entry is on record as “concentration-dependent increase”.

Consider `COc1ccc(CCN(C)CCCC(C#N)(c2ccc(OC)c(OC)c2)C(C)C)cc1OC` (stereo not shown) [verapamil], for which, in data set [3] (Homo sapiens, read-out: IC50 for decrease of MAC), the IC50 was 1460 nM. In addition, in data set [4] (up to 222-fold the fETPC), the AC incidence entry is given as “neither AC or CE incidence”, the CE incidence entry was “neither AC or CE incidence” and the TR90 result is recorded as “no change”.

For the compound `CN(CCOc1ccc(NS(C)(=O)=O)cc1)CCc1ccc(NS(C)(=O)=O)cc1` [dofetilide], in data set [1], the sarcomere shortening entry was “no effects” and the “concentration” value was 10 -fold the fETPC. Moreover, in data set [3] (human ventricular trabeculae), the “MAC (maximum amplitude of force of contraction)” value was “no effects” and the TR90 result is on record as “concentration-dependent increase”. The AC incidence result in data set [3] (human ventricular trabeculae, starting at the fETPC) is “observed starting at the fETPC”.

As to `COc1ccccc1OCC(O)CN1CCN(CC(=O)Nc2c(C)cccc2C)CC1` (stereo not shown) [ranolazine], in data set [1], the AC incidence entry is listed as “induced no ACs” and the sarcomere shortening result is recorded as “inhibited”.
